Measurements as given in US20250360179A1, “PEPTIDE-IONIC LIQUID CONJUGATE FOR THE PREVENTION AND/OR TREATMENT OF SKIN DISORDERS” (UNIVERSIDADE DO PORTO, priority 2022, published 2025).
Where “and” joins values, the source holds several entries; their conditions need not be identical. Equal values may be shown once. Read-outs that look alike come from different tables or passages of the source. Marks after values point to notes of the source that are not given here. Values belong to the molecule of their own block, whether it stands above or below them. Residues, ends and D or L forms follow the SMILES beside them. *: point of attachment. X1 = CCCCCCCCCCCCCCCCn1cc[n+](Cc2cn(CC(=O)*)nn2)c1; X2 = Cn1cc[n+](Cc2cn(CC(=O)*)nn2)c1

What was measured:
Type in all cases: cell-based
[1] = system: E. faecalis ATCC 29212; experiment: MIC (CLSI) against E. faecalis ATCC 29212; conditions: E. faecalis ATCC 29212, n = 3
[2] = system: P. aeruginosa ATCC 27853; experiment: MIC (CLSI) against P. aeruginosa ATCC 27853; conditions: P. aeruginosa ATCC 27853, n = 3
[3] = system: S. aureus ATCC 29213; experiment: MIC (CLSI) against S. aureus ATCC 29213; conditions: S. aureus ATCC 29213, n = 3
[4] = system: E. coli ATCC 25922; experiment: MIC (CLSI) against E. coli ATCC 25922; conditions: E. coli ATCC 25922, n = 3
[5] = system: Candida albicans (ATCC 90028); experiment: Antifungal MIC (EUCAST) against C. albicans; conditions: C. albicans ATCC 90028, n = 2
[6] = system: K. pneumonia ATCC 138830; experiment: MIC (CLSI) against K. pneumoniae ATCC reference strain; conditions: K. pneumonia ATCC 138830, n = 3
[7] = system: Candida parapsilosis (ATCC 22019); experiment: Antifungal MIC (EUCAST) against C. parapsilosis; conditions: C. parapsilosis ATCC 22019, n = 2
[8] = system: Candida glabrata (ATCC 90030); experiment: Antifungal MIC (EUCAST) against C. glabrata; conditions: C. glabrata ATCC 90030, n = 2
[9] = system: S. aureus (ATCC 29213); experiment: MIC and MBC in MHB and simulated wound fluid (SWF); conditions: for MBC: S. aureus ATCC 29213 in MHB, n = 3; for antibacterial activity in simulated wound fluid (SWF): S. aureus, SWF compared with MHB
Protocol: The antibacterial activity of C16Im-KTTKS and KTTK(C16Im)S was also assessed in SWF (50) against S. aureus (ATCC 29213), to check if it was preserved in this medium.

[10] = system: S. pyogenes ATCC 19615; experiment: MIC (CLSI) against S. pyogenes ATCC 19615; conditions: S. pyogenes ATCC 19615, n = 3
[11] = system: K. pneumoniae (KP010) MDR clinical isolate; conditions: MDR isolate KP010, n = 3
[12] = system: Gram-negative and Gram-positive bacteria (ATCC reference strains); experiment: Antibacterial activity against ATCC reference strains, statements across species; conditions: Gram-positive species at MIC values
Protocol: The antimicrobial activity of the IL-KTTKS conjugates was assessed in vitro against reference bacterial strains (American Type Culture Collection, ATCC). The minimal inhibitory concentration (MIC) was determined according to the Clinical and Laboratory Standards Institute (CLSI) guidelines (43) against Gram-positive (S. aureus, E. faecalis) and Gram-negative (E. coli, P. aeruginosa) bacteria. […] IL are in agreement with those previously reported (44).

[13] = system: S. aureus (SA007) MDR clinical isolate; conditions: for MIC: MDR isolate SA007, n = 3
[14] = system: P. aeruginosa (PA004) MDR clinical isolate; conditions: MDR isolate PA004, n = 3
[15] = system: S. epidermidis ATCC 14990; experiment: MIC (CLSI) against S. epidermidis ATCC 14990; conditions: S. epidermidis ATCC 14990, n = 3
[16] = system: human dermal fibroblasts (HDF); experiment: Collagen production in vitro (Sircol kit); conditions: 5 μM, versus negative control
Protocol: FIG. 3—Collagen synthesis by Human Dermal Fibroblasts (HDF), in presence of C16-KTTKS-OH (Matrixyl®), KTTK (C16Im)S and C16Im-KTTKS at 5 μM, using the Sircol™ Kit. Data are presented as mean±SEM (3 independent experiments in triplicates) expressed in collagen amount (% of control); *p<0.05, **p<0.01.
The point of conjugating antimicrobial ILs to a collagenesis-inducing peptide was to afford a simple construct able to exert a dual antimicrobial and skin rebuilding action. Therefore, the two best IL-KTTKS conjugates were further tested for their ability to promote collagen production by human dermal fibroblasts (HDF) in vitro. This was assessed using the Sircol® kit assay, whereby the amount of newly formed collagen in the ECM that is deposited in the microwell-plated cell cultures is solubilized in an acidic medium and next quantified through a collagen standard curve according to the Sircol® kit assay procedure (55). Assays were conducted in different conditions for comparison, namely, in the presence of the reference cosmeceutical Matrixyl® (positive control—C16-KTTKS-OH), of the test conjugates KTTK(C16Im)S and C16Im-KTTKS, and in the absence of any peptide (negative control).

SMILES: C[C@@H](O)[C@H](NC(=O)[C@@H](NC(=O)[C@@H](N)CCCCN)[C@@H](C)O)C(=O)N[C@@H](CCCCn1cc(C[n+]2ccn(C)c2)nn1)C(=O)N[C@@H](CO)C(N)=O [KTTK(MeIm)S]
MIC [1]: > 954.2 μM and > 677.3 μg/mL | MIC [2]: > 954.2 μM and > 677.3 μg/mL | MIC [3]: > 954.2 μM and > 677.3 μg/mL | MIC [4]: > 677.3 µg/mL

MIC [5]: 0.93 µM | MIC [1]: 0.94^c μM | MIC [6]: 60 µM | MIC [2]: >240 µM | MIC [3]: 0.94^d μM | MIC [7]: 0.93 µM | MIC [8]: 0.93 µM | MIC [4]: 60 µM
SMILES: CCCCCCCCCCCCCCCCn1cc[n+](C)c1.[Br-] [[C16M1Im][Br], reference compound]

SMILES: CCCCCCCCCCCCCCCCn1cc[n+](Cc2cn(CC(=O)N[C@@H](CCCCN)C(=O)N[C@H](C(=O)N[C@H](C(=O)N[C@@H](CCCCN)C(=O)N[C@@H](CO)C(N)=O)[C@@H](C)O)[C@@H](C)O)nn2)c1 [Peptide C16Im-KTTKS] (X1-KTTKS-NH2; N-terminus and C-terminus assumed)
MIC [5]: 4.6 µg/mL | MBC [9]: [32-64] μg/mL | antibacterial activity in simulated wound fluid (SWF) [9]: retain | MIC [1]: (28.0) μg/mL | MIC [10]: (18.5) μg/mL | MIC [6]: (26.8) μg/mL | MIC [2]: (28.0) μg/mL | MIC [3]: (14.0) μg/mL | MIC [11]: (37.0) μg/mL | bacteriostatic or bactericidal action [12]: bactericidal | MIC relative to that of ciprofloxacin ([13]; MDR isolate SA007): ~10 fold | MIC [13]: (18.5)^a μg/mL | MIC [14]: (18.5) μg/mL | MIC [7]: (2.3) μg/mL | MIC [8]: (4.6) μg/mL | MIC [4]: (14.0) μg/mL | MIC [15]: (9.3) μg/mL | collagen production (collagen amount, % of control) [16]: produce more collagen

SMILES: CCCCCCCCCCCCCCCCn1cc[n+](Cc2cn(CCCC[C@H](NC(=O)[C@@H](NC(=O)[C@@H](NC(=O)[C@@H](N)CCCCN)[C@@H](C)O)[C@@H](C)O)C(=O)N[C@@H](CO)C(N)=O)nn2)c1 [KTTK(C16Im)S]
MIC [5]: 5.0 µg/mL | MBC [9]: [64-128] μg/mL | antibacterial activity in simulated wound fluid (SWF) [9]: slightly decrease | MIC [1]: (29.9) μg/mL | MIC [10]: (10.0) μg/mL | MIC [6]: (49.5) μg/mL | MIC [2]: (29.9) μg/mL | MIC [3]: (12.9) μg/mL | MIC [11]: 20.0 µg/mL | bacteriostatic or bactericidal action [12]: bactericidal | MIC [13]: 21.7 μM and 20.0 μg/mL | MIC [14]: 21.7 μM and 20.0 μg/mL | MIC [7]: (2.5) μg/mL | MIC [8]: (5.0) μg/mL | MIC [4]: (6.45) μg/mL | MIC [15]: (5.0) μg/mL | collagen production (collagen amount, % of control) [16]: produce more collagen

SMILES: CCCCCCCCCCCCCCn1cc[n+](Cc2cn(CCCC[C@H](NC(=O)[C@@H](NC(=O)[C@@H](NC(=O)[C@@H](N)CCCCN)[C@@H](C)O)[C@@H](C)O)C(=O)N[C@@H](CO)C(N)=O)nn2)c1 [KTTK(C14Im)S]
MIC [1]: (52.6)^b μg/mL | MIC [2]: (52.6)^b μg/mL | MIC [3]: (26.3) μg/mL | MIC [4]: (26.3) μg/mL

SMILES: C[C@@H](O)[C@H](NC(=O)[C@H](CCCCN)NC(=O)Cn1cc(C[n+]2ccn(C)c2)nn1)C(=O)N[C@H](C(=O)N[C@@H](CCCCN)C(=O)N[C@@H](CO)C(N)=O)[C@@H](C)O [MeIm-KTTKS] (X2-KTTKS-NH2; N-terminus and C-terminus assumed)
MIC [1]: > 825.9 μM and > 633.4 μg/mL | MIC [2]: > 825.9 μM and > 633.4 μg/mL | MIC [3]: > 825.9 μM and > 633.4 μg/mL | MIC [4]: > 633.4 µg/mL

SMILES: C[C@@H](O)[C@H](NC(=O)[C@@H](NC(=O)[C@@H](N)CCCCn1cc(C[n+]2ccn(C)c2)nn1)[C@@H](C)O)C(=O)N[C@@H](CCCCn1cc(C[n+]2ccn(C)c2)nn1)C(=O)N[C@@H](CO)C(N)=O [K(MeIm)TTK(MeIm)S]
MIC [1]: > 1245.5 μM and > 1067.4 μg/mL | MIC [2]: > 1245.5 μM and > 1067.4 μg/mL | MIC [3]: > 1245.5 μM and > 1067.4 μg/mL | MIC [4]: > 1067.4 µg/mL

SMILES: C[C@@H](O)[C@H](NC(=O)[C@@H](NC(=O)[C@@H](N)CCCCn1cc(C[n+]2ccn(C)c2)nn1)[C@@H](C)O)C(=O)N[C@@H](CCCCN)C(=O)N[C@@H](CO)C(N)=O [K(MeIm)TTKS]
MIC [1]: > 1030.1 μM and > 731.2 μg/mL | MIC [2]: > 1030.1 μM and > 731.2 μg/mL | MIC [3]: > 1030.1 μM and > 731.2 μg/mL | MIC [4]: > 731.2 µg/mL

MIC ([5]; Candida albicans, ATCC90028, read-out: MIC): 0.5 µg/mL | MIC ([7]; ATCC22019, read-out: MIC): 2 µg/mL | MIC ([8]; Nakaseomyces glabratus, ATCC90030, read-out: MIC): 8 µg/mL
SMILES: OC(Cn1cncn1)(Cn1cncn1)c1ccc(F)cc1F [Fluconazole, reference compound]
